Measurements published in paper doi:10.1101/2021.04.29.441652v1 (biorxiv, 2021).

These compounds were tested against human σ2 receptor (TMEM97) (Homo sapiens, UniProt Q5BJF2) (assay: biochemical). Details: read-out: % of control remaining.
Assay type: Expi293 membranes

human σ2 receptor (TMEM97), sequence (Q5BJF2 whole entry): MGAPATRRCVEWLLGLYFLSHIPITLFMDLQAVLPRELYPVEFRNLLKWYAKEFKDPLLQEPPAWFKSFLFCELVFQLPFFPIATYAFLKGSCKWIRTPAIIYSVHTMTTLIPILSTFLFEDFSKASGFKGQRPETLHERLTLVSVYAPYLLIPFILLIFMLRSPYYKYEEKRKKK

Compared with `COc1cccnc1CN[C@H](Cc1ccc(C)cc1)C1CC1` [ZINC000453351921], `Cc1ccc(C[C@H](CO)NCc2cccc(F)c2)cc1C` [ZINC000453607577] is higher in remaining activity at 1 µM: 69.2% for the first, 86.8% for the second.

Compared with `CN1CC[C@@H](CNC(=O)Nc2cc(F)ccc2Oc2ccccc2)C1` [ZINC000454705882], `Cc1ccccc1[C@@H]1CCN([C@H](C)C(=O)NCCc2ccccc2)C1` [ZINC000513818302] is higher in remaining activity at 1 µM: 87.6% for the first, 89.1% for the second.

First: CCN(CC)[C@H]1CCN(CC(=O)N[C@@H](c2ccccc2)c2cccs2)C1 [ZINC000464767692]
Second: CCN(CC)[C@H]1CCN(C(=O)NCCCc2cccc(Cl)c2)C1 [ZINC000465804078]
The remaining activity at 1 µM of the first is higher: 73.8% for the first, 67.7% for the second.

Going from `C[C@@H]1CN(C2CC2)C[C@H]1NC(=O)N(Cc1cccc(Br)c1)C1CC1` [ZINC000466933503] to `C[C@@H]1C[C@H](NC(=O)C(=O)N(C)Cc2c(Cl)cccc2Cl)CN1C1CC1` [ZINC000574318236], the remaining activity at 1 µM rises from 84.3% to 100%.

First: CC(C)CO[C@H]1CCN([C@@H](C)C(=O)N(C)Cc2ccc(Br)cc2)C1 [ZINC000468894194]
Second: C[C@H](C(=O)NCc1ccc(Cl)cc1)N1CC[C@@H](c2cccnc2)C1 [ZINC000571080072]
The remaining activity at 1 µM of the first is lower: 35.4% for the first, 64% for the second.

Compared with `C[C@@H]1[C@H](Cc2ccccc2)CCN1Cc1cc(=O)n2cc(Cl)ccc2n1` [ZINC000472356611], `Cc1cccc(CNc2nccn2Cc2ccccc2)c1C` [ZINC000508475661] is lower in remaining activity at 1 µM: 45.9% for the first, 38.6% for the second.

Going from `COc1ccnc(N2CCN([C@H](C)CCSc3ccccc3)CC2)n1` [ZINC000473272986] to `C[C@@H](C(=O)NCc1ccccc1Cl)N1CC[C@H](n2ncc3ccccc32)C1` [ZINC000542825037], the remaining activity at 1 µM rises from 66.5% to 107%.

Going from `C[C@H](NC[C@H](CO)Cc1c(F)cccc1Cl)c1ccco1` [ZINC000483826940] to `NC(=O)[C@H](Cc1ccc(Cl)cc1)NCc1cc2ccccc2s1` [ZINC000517634594], the remaining activity at 1 µM rises from 22.5% to 98.7%.

Compared with `CCCCNC(=O)[C@H](C)N1CC[C@](C)(CNC(=O)OC(C)(C)C)C1` [ZINC000495656270], `CN(C[C@H](O)CN[C@@H]1C[C@H]2CCCCN2C1=O)C(=O)OC(C)(C)C` [ZINC000496403719] is higher in remaining activity at 1 µM: 45.1% for the first, 92.4% for the second.

Going from `C[C@]1(c2ccccc2)CCCN(CC(=O)N2CCc3ccccc32)C1` [ZINC000500192494] to `COC(=O)[C@H](NCC(C)(C)N1CCc2ccccc2C1)c1ccccc1` [ZINC000609803478], the remaining activity at 1 µM falls from 69.3% to 49.8%.

First: C[C@@H]1CCN(CC(=O)N(C)[C@@H](C)c2ccc(F)c(F)c2)C[C@@H]1C [ZINC000501775665]
Second: CCCN1CC[C@H](NS(=O)(=O)c2ccc(C(=O)OC)cc2F)C1 [ZINC000595353335]
The remaining activity at 1 µM of the first is lower: 20.4% for the first, 97.7% for the second.

Going from `COCCN1CCC(N[C@H]2COc3cc(F)c(Br)cc32)CC1` [ZINC000504552433] to `CC(C)OCCN1CCC(NC(=O)[C@@H]2CCc3nncn3C2)CC1` [ZINC000556484619], the remaining activity at 1 µM rises from 49.2% to 112%.

First: CC[C@H]1CN(Cc2ccc(-c3ccccc3)cc2F)C[C@H]1O [ZINC000507809396]
Second: COC(=O)c1ccccc1NC(=O)CN1C[C@@H](c2ccccc2)C[C@@H]1C [ZINC000532978237]
The remaining activity at 1 µM of the first is lower: 14% for the first, 119% for the second.

First: Brc1ccccc1CNc1nccn1Cc1ccccc1 [ZINC000508455082]
Second: O=C(Nc1cnc2ccccc2c1)[C@]1(O)CCN(Cc2ccccc2)C1 [ZINC000524392254]
The remaining activity at 1 µM of the first is lower: 69.3% for the first, 93.9% for the second.

Going from `C[C@H]1C[C@H](N2CCCC2)CN1CC(=O)N(Cc1ccccc1)c1ccccc1` [ZINC000512182007] to `COC(=O)[C@H](c1cccc(Cl)c1Cl)N1CCC[C@H](N2CCCC2)C1` [ZINC000611661177], the remaining activity at 1 µM falls from 31.6% to 19.1%.

First: Cc1cccc(NC(=O)N(C)C[C@H]2CCCN2C)c1C(=O)N1CCCC1 [ZINC000516964180]
Second: CC1(C)Cc2cc(C(=O)N3CCC[C@@H](N4CCCC4)CC3)ccc2O1 [ZINC000584233558]
The remaining activity at 1 µM of the first is higher: 99.3% for the first, 22.7% for the second.

Compared with `Cc1ccccc1[C@H](OC[C@H](O)CN1Cc2ccccc2C1)c1ccccc1` [ZINC000518003593], `C[C@H](CN(C)CC(=O)NCc1cccc(Cl)c1)c1ccccc1` [ZINC000589606863] is lower in remaining activity at 1 µM: 79.8% for the first, 68.9% for the second.

First: Cc1ccnc2nc(C(=O)N3CCN(CCN4CCCC4)CC3)nn12 [ZINC000518759550]
Second: CN1CCN(CCCCNC(=O)C(=O)N2CCSCC2)CC1 [ZINC000555574173]
The remaining activity at 1 µM of the first is higher: 115% for the first, 107% for the second.

Compared with `COc1cc(Cl)c(C)cc1NC(=O)[C@H](C)N(C)Cc1sccc1C` [ZINC000520440291], `CCc1cc(N2CCC[C@@H](N[C@H](C)c3ccc(OC)c(Cl)c3)C2)ncn1` [ZINC000536865847] is lower in remaining activity at 1 µM: 102% for the first, 36.3% for the second.

Compared with `CC[C@@H]1CCC[C@H](NC(=O)[C@H](C)N2CCCCCC2)C1` [ZINC000525245955], `C[C@@H](C(=O)Nc1cccc(C2CCCCC2)c1)N1CCN(C)CC1` [ZINC000529649527] is lower in remaining activity at 1 µM: 93.6% for the first, 84.3% for the second.

First: Cc1cccc(C[C@H](CO)NCc2cnc(C3CCCCC3)s2)c1 [ZINC000526962900]
Second: CCc1nc2cc(CN[C@@H](C)CC(=O)N3CCCCCC3)ccc2n1C1CC1 [ZINC000574654702]
The remaining activity at 1 µM of the first is higher: 60.7% for the first, 48.4% for the second.

First: C[C@@H](N[C@H]1Cc2ccccc2NC1=O)[C@@H]1C[C@H]1c1ccc(Cl)s1 [ZINC000528002641]
Second: Cc1csc2nc(CN[C@H]3C[C@H](OCc4ccccc4)C3(C)C)cc(=O)n12 [ZINC000567338231]
The remaining activity at 1 µM of the first is higher: 84% for the first, 34.7% for the second.

First: O=C(NC[C@@H]1CNCCO1)N1CCN(S(=O)(=O)C2CC2)CC1 [ZINC000529344158]
Second: CN1CCN(C(=O)C(=O)N2CCCN(C3CCCC3)CC2)CC1=O [ZINC000556797005]
The remaining activity at 1 µM of the first is higher: 135% for the first, 79.9% for the second.

Going from `CC1(C)[C@H](NC(=O)[C@]2(O)CCN(Cc3ccccc3)C2)[C@@H]2CCCO[C@@H]21` [ZINC000531059007] to `CC(C)Cc1ccc(C(=O)N2CCN([C@@H]3CCC[C@@H]3O)CC2)cc1` [ZINC000592403811], the remaining activity at 1 µM rises from 87.5% to 153%.

First: CC(=O)N1CCN(C(=O)C(=O)Nc2cnn(-c3ccccn3)c2)CC1 [ZINC000531495018]
Second: CCc1c(C(=O)N[C@@H](C)C2CCN(C)CC2)cnn1-c1ccccc1 [ZINC000603324806]
The remaining activity at 1 µM of the first is higher: 99.3% for the first, 65.5% for the second.

Going from `C[C@H](C(=O)Nc1ccc(F)cc1Cl)N1CC[C@H](N2CCCC2)C1` [ZINC000533411740] to `C[C@@H](C(=O)NC[C@H](C)N1CCCC1)c1c(Cl)cccc1Cl` [ZINC000586751050], the remaining activity at 1 µM rises from 79.7% to 98.2%.

First: Cc1cc(NC(=O)[C@H](C)N2CCC[C@@H]([C@H](C)O)C2)ccc1Br [ZINC000534109220]
Second: Cc1ccc2c(c1)[C@H](NC(=O)NC[C@@H]1CCN(C(C)C)C1)CCC2 [ZINC000575186982]
The remaining activity at 1 µM of the first is higher: 70.4% for the first, 22.9% for the second.

Going from `CCCC1CCC(CN2CCN(CC(=O)N(CC)CC)CC2)CC1` (stereo not drawn) [ZINC000539406733] to `COCCN1CCC[C@@H]1CNC(=O)C(=O)N1CCC[C@@H](C(C)C)CC1` [ZINC000557493019], the remaining activity at 1 µM rises from 34% to 113%.

First: COc1cccc2ncnc(N3CCN(CC4CCOCC4)CC3)c12 [ZINC000543048256]
Second: Cc1nc(CN2CC[C@H](CC3CC3)C2)nc2ccccc12 [ZINC000550423124]
The remaining activity at 1 µM of the first is higher: 109% for the first, 43.5% for the second.

Compared with `FC(F)(F)c1cccc([C@@]2(F)CCN(C[C@@H]3CCSC3)C2)c1` [ZINC000549824186], `CCN1CC[C@H](N(CC)C(=O)c2cccc(C(F)(F)F)n2)C1` [ZINC000617924178] is higher in remaining activity at 1 µM: 20% for the first, 126% for the second.

First: Cn1nccc1[C@@H]1CCC[C@@H](N[C@H]2CC3CCC2CC3)C1 [ZINC000550829396]
Second: CC1CCC(CNC(=O)C(=O)NC2CCN([C@@H]3CCC[C@@H]3O)CC2)CC1 (stereo partly drawn) [ZINC000564110976]
The remaining activity at 1 µM of the first is lower: 19.6% for the first, 78.2% for the second.

Going from `CN1CC[C@](O)(CN[C@@H](c2sccc2Br)C2CCCCC2)C1` [ZINC000556573026] to `C[C@H](Cc1ccccc1Br)NCC1(O)CCC1` [ZINC000577603040], the remaining activity at 1 µM rises from 16.7% to 61.7%.

First: CCc1ccc([C@@H](C)N[C@@H]2CCCN(C(=O)CCC(F)(F)F)C2)s1 [ZINC000574285278]
Second: CCCN1CCC[C@H]1C(=O)NCc1cnccc1C(F)(F)F [ZINC000621202771]
The remaining activity at 1 µM of the first is higher: 76.2% for the first, 61.4% for the second.

Going from `C[C@H](NC1CC1)C(=O)NCc1ccc(C(=O)N=c2cc[nH]cc2)cc1` [ZINC000576277949] to `CC(C)Cc1ccc(C(=O)Nc2ccc(OCCN3CCN(C)CC3)cc2)cc1` [ZINC000608224751], the remaining activity at 1 µM rises from 67.2% to 75.6%.

Going from `O[C@@H]1CC[C@@H]2CN(Cc3cccc4c[nH]nc34)C[C@@H]21` [ZINC000582751592] to `Cc1cc([N+](=O)[O-])ccc1NC(=O)CN1CCC[C@@H]([C@@H]2CCCCO2)C1` [ZINC000595790972], the remaining activity at 1 µM rises from 72.4% to 96.1%.

Compared with `Fc1cccc(Cl)c1CNC1CCC2(CCCO2)CC1` (stereo not drawn) [ZINC000584028046], `CN(C)S(=O)(=O)N(C)CC(=O)N[C@@H]1COc2cc(F)ccc2C1` [ZINC000618647685] is higher in remaining activity at 1 µM: 18.4% for the first, 91.7% for the second.

First: O=C(Cn1cc([N+](=O)[O-])ccc1=O)N1CC[C@H](N2CC[C@@H](O)C2)C1 [ZINC000588863575]
Second: N#Cc1sccc1N1CCN(CCCCCn2cccn2)CC1 [ZINC000595632104]
The remaining activity at 1 µM of the first is higher: 134% for the first, 45.7% for the second.

Going from `CC(C)(CO)N1CCN(c2nc3c(Br)cccc3s2)CC1` [ZINC000621267824] to `COCC(COC)N1CCN(S(=O)(=O)c2cnc(C)n2C)CC1` [ZINC000625246444], the remaining activity at 1 µM rises from 33.4% to 105%.

Going from `C[C@@H]1CCCC[C@H]1OCCNC(=O)NC[C@H]1CCCCN(C)C1` [ZINC000623468108] to `CC(C)CC[C@@H](CO)N[C@H](C)c1nc2c(s1)CCCC2` [ZINC000624110289], the remaining activity at 1 µM falls from 84.9% to 49.3%.
